Measurements published in US20240148821A1, “PHARMACEUTICAL USE OF CYCLIC PEPTIDE COMPOUND” (CHUGAI SEIYAKU KABUSHIKI KAISHA, priority 2021, published 2024).
Numbered stars: 1 amine (or outer) side, 2 acyl side, 3 side chain; on linkers, the order of the positions; unused ones are H or OH. Bridge positions count the residues as written; N and C are the ends. Square brackets hold non-standard residues; d marks the D form. Peptide text beside a SMILES is read from it. * marks the point of attachment. hPhe(3-Cl-4-CF3) = N[C@@H](CCc1ccc(C(F)(F)F)c(Cl)c1)C(=O)O; hPhe(3-F,4-CF3) = N[C@@H](CCc1ccc(C(F)(F)F)c(F)c1)C(=O)O; NMePhe(4-CF3) = CN[C@@H](Cc1ccc(C(F)(F)F)cc1)C(=O)O; X11 = O=C([C@H](CCc1ccc2occc2c1)N[*:1])[*:2]; NMePhe(4-Me) = CN[C@@H](Cc1ccc(C)cc1)C(=O)O; NMePhe(2-Cl) = CN[C@@H](Cc1ccccc1Cl)C(=O)O; NMedβ3hAla = C[C@H](CC(=O)[*:2])N(C)[*:1]; NMeGly(cPent) = CN[C@H](C(=O)O)C1CCCC1; Phe(3-I) = N[C@@H](Cc1cccc(I)c1)C(=O)O; mXylylene = c1cc(C[*:1])cc(C[*:2])c1; NMeCha = CN[C@@H](CC1CCCCC1)C(=O)O; Hyp = O=C(O)[C@@H]1C[C@@H](O)CN1; NMeChg = CN[C@H](C(=O)O)C1CCCCC1; NMeI = CC[C@H](C)[C@H](NC)C(=O)O; Gly(cBu) = N[C@H](C(=O)O)C1CCC1; NMeD = CN[C@@H](CC(=O)O)C(=O)O; NMeL = CN[C@@H](CC(C)C)C(=O)O; dNMeAbu = CC[C@@H](NC)C(=O)O; NMeV = CN[C@H](C(=O)O)C(C)C; d(β3hA) = C[C@@H](N)CC(=O)O; NMeAbu = CC[C@H](NC)C(=O)O; NMeA = CN[C@@H](C)C(=O)O; NMeAib = CNC(C)(C)C(=O)O; Piperidide = C1CCN(*)CC1; Pra = C#CC[C@H](N)C(=O)O; dNMeA = CN[C@H](C)C(=O)O; Ac5c = NC1(C(=O)O)CCCC1; Aze = O=C(O)[C@@H]1CCN1; NBuGly = CCCCNCC(=O)O; Sar = CNCC(=O)O

Target: protein-protein interaction between Kras and SOS1 (biotin-tagged human Kras loaded with GDP, His-tagged human SOS1) (Homo sapiens (Human), UniProt P01116, G12D)
Assay: Protein-protein interaction inhibition between Kras and SOS1 (KrasG12D-SOS PPI) using AlphaScreen;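 further: kras produced in E. coli, Ni-coupled donor beads and streptavidin acceptor beads, excitation 680 nm with emission detected at 520–620 nm via singlet oxygen transfer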
Format: biochemical
Details: AlphaScreen; biotin-tagged human Kras loaded with GDP, His-tagged human SOS1; read-out: KRAS G12D-SOS PPI IC50

| Structure (SMILES) | IC50 [nM] |
| --- | --- |
| CC(C)C[C@H]1C(=O)N[C@@H](C2CCC2)C(=O)N(C)[C@@H](C)C(=O)N2CC[C@H]2C(=O)N(C)[C@@H](CC2CCCCC2)C(=O)N(C)CC(=O)N[C@@H](CCc2ccc(C(F)(F)F)c(Cl)c2)C(=O)N2CCC[C@H]2C(=O)NC2(CCCC2)C(=O)N(C)[C@@H](C(C)C)C(=O)N(C)[C@H](C(=O)N2CCCCC2)CC(=O)N1C [Compound 157] ([NMeL][Gly(cBu)][NMeA][Aze][NMeCha][Sar][hPhe(3-Cl-4-CF3)]P[Ac5c][NMeV][NMeD]-Piperidide; lactam N-11) | 7.5 |
| CC[C@H](C)[C@@H]1NC(=O)[C@H](C)N(C)C(=O)C[C@@H](C(=O)N2CCCCC2)N(C)C(=O)[C@H](C(C)C)N(C)C(=O)C2(CCCC2)NC(=O)[C@H](Cc2ccccc2Cl)N(C)C(=O)[C@H](CCc2ccc(C(F)(F)F)c(Cl)c2)NC(=O)CN(C)C(=O)[C@H](Cc2ccc(C)cc2)N(C)C(=O)CN(C)C(=O)CN(C)C1=O [Compound 2007] ([NMeA]I[Sar][Sar][NMePhe(4-Me)][Sar][hPhe(3-Cl-4-CF3)][NMePhe(2-Cl)][Ac5c][NMeV][NMeD]-Piperidide; lactam N-11) | 230 |
| CC[C@H](C)[C@@H]1NC(=O)[C@H](C)N(C)C(=O)C[C@@H](C)NC(=O)[C@H](C2CCCCC2)N(C)C(=O)C(C)(C)N(C)C(=O)[C@@H]2CCCN2C(=O)[C@H](CCc2ccc(C(F)(F)F)c(Cl)c2)NC(=O)CN(C)C(=O)[C@H](CC2CCCCC2)N(C)C(=O)[C@@H]2CCN2C(=O)[C@H](C)N(C)C1=O [Compound 291] (cyclo([Aze][NMeCha][Sar][hPhe(3-Cl-4-CF3)]P[NMeAib][NMeChg][d(β3hA)][NMeA]I[NMeA])) | 55 |
| CC[C@H](C)[C@@H]1NC(=O)[C@H](CC)N(C)C(=O)C[C@@H](C(=O)N2CCCCC2)N(C)C(=O)[C@H](C(C)C)N(C)C(=O)C2(CCCC2)NC(=O)[C@@H]2CCCN2C(=O)[C@H](CCc2ccc(C(F)(F)F)c(Cl)c2)NC(=O)CN(C)C(=O)[C@H](CC2CCCCC2)N(C)C(=O)[C@@H]2CCN2C(=O)[C@H](C)N(C)C1=O [Compound 1638] ([NMeAbu]I[NMeA][Aze][NMeCha][Sar][hPhe(3-Cl-4-CF3)]P[Ac5c][NMeV][NMeD]-Piperidide; lactam N-11) | 7.3 |
| CC[C@@H]1C(=O)NC2(CCCC2)C(=O)N(C)[C@@H](C2CCCC2)C(=O)N(C)[C@H](C(=O)N2CCCCC2)CC(=O)N(C)[C@@H](CC(C)C)C(=O)N[C@@H]([C@@H](C)CC)C(=O)N(C)CC(=O)N(C)CC(=O)N(C)[C@@H](CC2CCCCC2)C(=O)N(C)CC(=O)N[C@@H](CCc2ccc(C(F)(F)F)c(Cl)c2)C(=O)N1C [Compound 1439] ([NMeL]I[Sar][Sar][NMeCha][Sar][hPhe(3-Cl-4-CF3)][dNMeAbu][Ac5c][NMeGly(cPent)][NMeD]-Piperidide; lactam N-11) | 3.7 |
| CC[C@H](C)[C@@H]1NC(=O)[C@H](CC(C)C)N(C)C(=O)C[C@@H](C(=O)N2CCCCC2)N(C)C(=O)[C@H](CC(C)C)N(C)C(=O)C2(CCCC2)NC(=O)[C@@H]2C[C@@H](OCc3cccc(C)c3)CN2C(=O)[C@H](CCc2ccc(C(F)(F)F)c(F)c2)NC(=O)CN(C)C(=O)[C@H](CC2CCCCC2)N(C)C(=O)CN(C)C(=O)CN(C)C1=O [Compound 2125] ([NMeL]I[Sar][Sar][NMeCha][Sar][hPhe(3-F,4-CF3)][Hyp](mXylylene)[Ac5c][NMeL][NMeD]-Piperidide; lactam N-11) | 16 |
| CCCCN1CC(=O)N(C)[C@@H]([C@@H](C)CC)C(=O)N(C)[C@H](C(=O)N(C)C)CC(=O)N(C)[C@@H](CC(C)C)C(=O)N[C@@H]([C@@H](C)CC)C(=O)N(C)[C@@H](C)C(=O)N2CC[C@H]2C(=O)N(C)[C@@H](Cc2ccc(C)cc2)C(=O)N(C)CC(=O)N[C@@H](CCc2ccc(C(F)(F)F)c(Cl)c2)C(=O)N2CCC[C@H]2C1=O [Compound 215] ([NMeL]I[NMeA][Aze][NMePhe(4-Me)][Sar][hPhe(3-Cl-4-CF3)]P[NBuGly][NMeI][NMeD]-NMe2; lactam N-11) | 29 |
| CC[C@H](C)[C@@H]1NC(=O)[C@H](C)N(C)C(=O)C[C@@H](C)N(C)C(=O)[C@H](C(C)C)N(C)C(=O)C(C)(C)N(C)C(=O)[C@@H]2CCCN2C(=O)[C@H](CCc2ccc(C(F)(F)F)c(Cl)c2)NC(=O)CN(C)C(=O)[C@H](CC2CCCCC2)N(C)C(=O)[C@@H]2CCN2C(=O)[C@H](C)N(C)C1=O [Compound 341] (cyclo([Aze][NMeCha][Sar][hPhe(3-Cl-4-CF3)]P[NMeAib][NMeV][NMedβ3hAla][NMeA]I[NMeA])) | 2.9 |
| C#CC[C@@H]1NC(=O)[C@H](Cc2cccc(I)c2)NC(=O)CN(C)C(=O)[C@H](Cc2ccc(C(F)(F)F)cc2)N(C)C(=O)CN(C)C(=O)CN(C)C(=O)[C@H]([C@@H](C)CC)NC(=O)[C@H](CC(C)C)N(C)C(=O)C[C@@H](C)N(C)C(=O)[C@H](CC(C)C)NC(=O)C(C)(C)N(C)C1=O [Compound 1406] (cyclo(I[Sar][Sar][NMePhe(4-CF3)][Sar][Phe(3-I)][Pra][NMeAib]L[NMedβ3hAla][NMeL])) | 160 |
| CC[C@H](C)[C@@H]1NC(=O)[C@H](CC(C)C)N(C)C(=O)C[C@@H](C)NC(=O)[C@H](C(C)C)N(C)C(=O)C2(CCCC2)NC(=O)[C@@H]2CCCN2C(=O)[C@H](CCc2ccc(C(F)(F)F)c(Cl)c2)NC(=O)CN(C)C(=O)[C@H](Cc2ccc(C)cc2)N(C)C(=O)[C@@H]2CCN2C(=O)[C@H](C)N(C)C1=O [Compound 1801] (cyclo([Ac5c][NMeV][d(β3hA)][NMeL]I[NMeA][Aze][NMePhe(4-Me)][Sar][hPhe(3-Cl-4-CF3)]P)) | 2.9 |
| CC[C@H](C)[C@@H]1NC(=O)[C@H](C)N(C)C(=O)C[C@@H](C)NC(=O)[C@H](C2CCCC2)N(C)C(=O)C2(CCCC2)NC(=O)[C@@H]2CCCN2C(=O)[C@H](CCc2ccc(C(F)(F)F)c(Cl)c2)NC(=O)[C@@H](C)N(C)C(=O)[C@H](Cc2ccccc2Cl)N(C)C(=O)[C@@H]2CCN2C(=O)[C@H](C)N(C)C1=O [Compound 464] (cyclo([Ac5c][NMeGly(cPent)][d(β3hA)][NMeA]I[NMeA][Aze][NMePhe(2-Cl)][dNMeA][hPhe(3-Cl-4-CF3)]P)) | 130 |
| CC[C@H](C)[C@@H]1NC(=O)[C@H](C)N(C)C(=O)C[C@@H](C)NC(=O)[C@H](C(C)C)N(C)C(=O)C2(CCCC2)NC(=O)[C@@H]2CCCN2C(=O)[C@H](CCc2ccc(C(F)(F)F)c(Cl)c2)NC(=O)[C@@H](C)N(C)C(=O)[C@H](CC2CCCCC2)N(C)C(=O)[C@@H]2CCN2C(=O)[C@@H]2CCN2C1=O [Compound 2013] (cyclo([Ac5c][NMeV][d(β3hA)][NMeA]I[Aze][Aze][NMeCha][dNMeA][hPhe(3-Cl-4-CF3)]P)) | 150 |
| CC[C@H](C)[C@@H]1NC(=O)[C@H](CC(C)C)N(C)C(=O)C[C@@H](C(=O)N2CCCCC2)N(C)C(=O)[C@H](C2CCCC2)N(C)C(=O)C2(CCCC2)NC(=O)[C@@H]2CCCN2C(=O)[C@H](CCc2ccc3occc3c2)NC(=O)CN(C)C(=O)[C@H](CC2CCCCC2)N(C)C(=O)[C@@H]2CCN2C(=O)[C@H](C)N(C)C1=O [Compound 2063] ([NMeL]I[NMeA][Aze][NMeCha][Sar][X11]P[Ac5c][NMeGly(cPent)][NMeD]-Piperidide; lactam N-11 (inferred); C-terminus assumed) | 8.8 |
